The source of these data is patent publication US11236059B2, “Targeted cytotoxic ratjadone derivatives and conjugates thereof” (HELMHOLTZ-ZENTRUM FUER INFEKTIONSFORSCHUNG GMBH, priority 2017, dated 2022).

Like-named read-outs stand apart in the source and are kept apart here. Numbered stars: 1 amine (or outer) side, 2 acyl side, 3 side chain; on linkers, the order of the positions; unused ones are H or OH. Square brackets hold non-standard residues; d marks the D form. Peptide text beside a SMILES is read from it. * marks the point of attachment. Pteroyl = Nc1nc2ncc(CNc3ccc(C(=O)*)cc3)nc2c(=O)[nH]1; Orn(N3) = [N-]=[N+]=NCCC[C@H](N)C(=O)O; γGlu = O=C(O)[C@H](CCC(=O)[*:2])N[*:1]

Test [1] relates to A549 (DSMZ ACC 107) cells. The test is described as follows: cells. The test is classed as cell-based. The protocol: (§1) 60 μL of serial dilutions of the test compound were given to 120 μL of suspended cells (50.000/mL) in wells of 96-well plates. After 5 days of incubation growth inhibition (IC50) was determined using an MTT assay.^[64]
The test system of test [2] is MCF-7 (DSMZ ACC 115) cells. The test is described as follows: cells. The test is classed as cell-based. The protocol:
as §1

Test [3] concerns SKOV-3 (DSMZ ATCC HTB 77) cells. The test is described as follows: cells. The test is classed as cell-based. The protocol: as §1
Test [4] deals with KB 3.1 (DSMZ ACC 158) cells.
The target in another test is T1, CRM1 (Homo sapiens, UniProt O14980).
T1 construct: HeLa cells stably expressing a fluorescent translocation biosensor (HeLaRevBio); endogenous in cells; host or cells: HeLa (HeLaRevBio in A7; HeLa in A8)
The test can be described thus: Monitoring export inhibitory activity (translocation biosensor, HeLaRevBio cells). The test is classed as cell-based. The protocol: Export inhibitory ability of compounds was evaluated with the translocation biosensor system. This cellular assay depends on a recombinantly expressed fusion protein consisting of a nuclear localization signal (SV40-NLS), glutathione S-transferase (GST), green fluorescent protein (GFP) and a nuclear export signal (HIV1-RevNES). Due to the two transport signals (NLS/NES), the biosensor is permanently shuttling between nucleus and cytoplasm but resides prominently in the cytoplasm due to a comparatively stronger NES. Export inhibiting compound induce a nuclear accumulation of the GFP-signal^[65,66] Cell lines were maintained as recommended by the American Type Culture Collection in DMEM containing 5% glutamine (Thermo Fisher Scientific, Waltham, USA) supplemented with 10% FBS (Thermo Fisher Scientific, Waltham, USA). For quantifying the nuclear export inhibitory effect, HeLa cells stably expressing a fluorescent translocation biosensor (HeLaRevBio)^[67] were seeded into black 96 well μclear plates (Greiner, Germany). They next day compounds were added covering an appropriate concentration range. After 1h of incubation, cells were fixed in 4% PFA for 10 min and permeabilized with 0.1% Triton X 100 in PBS for 5 min. After washing with PBS nuclei were labeled with Hoechst H33342 (30 min 10 μg/ml). The intracellular distribution of the biosensor-dependent GFP signal was quantitatively evaluated with the high content imaging system ImageXpress MicroXLS (Molecular Devices, Sunnyvale, USA). By using the translocation enhanced application module (Molecular Devices, Sunnyvale, USA) the GFP-intensity was quantified in the cytoplasm and nuclear region. As final readout the difference of Mean Inner and Mean Outer Intensity was calculated. IC50s of nuclear export inhibition were calculated using Sigma Plot with four parameter logistics curve regression (Systat Software GmbH, Erkrath, Germany). […] The following day compounds were added at 125 nM final concentration.

Test [5] deals with KB 3.1 (DSMZ ACC 158) cells. The test can be described thus: cells. The settings on record: Homo sapiens, KB 3-1, 120 h, read-out: IC50 [nM] KB-3.1, growth inhibition, 5 days of incubation, MTT assay.
Where [6] appears, read: Homo sapiens, A549, 120 h, read-out: IC50 [nM] A-549, growth inhibition, 5 days of incubation, MTT assay.
[7] abbreviates: Homo sapiens, MCF7, 120 h, read-out: IC50 [nM] MCF-7, growth inhibition, 5 days of incubation, MTT assay.
Where [8] appears, read: Homo sapiens, SK-OV-3, 120 h, read-out: IC50 [nM] SK-OV-3, growth inhibition, 5 days of incubation, MTT assay.
[9] abbreviates: HeLa cells stably expressing translocation biosensor, 1h of incubation, read-out: IC50 [nM] CRM1 (nuclear export inhibition).
Setting [10] is: growth inhibition, 5 days of incubation, MTT assay, read-out: IC50 [nM] A-549 (carrier molecules).
Setting [11] is: read-out: IC50 [nM] KB-3.1 (carrier molecules), growth inhibition, 5 days of incubation, MTT assay.

T1 sequence (O14980 whole entry): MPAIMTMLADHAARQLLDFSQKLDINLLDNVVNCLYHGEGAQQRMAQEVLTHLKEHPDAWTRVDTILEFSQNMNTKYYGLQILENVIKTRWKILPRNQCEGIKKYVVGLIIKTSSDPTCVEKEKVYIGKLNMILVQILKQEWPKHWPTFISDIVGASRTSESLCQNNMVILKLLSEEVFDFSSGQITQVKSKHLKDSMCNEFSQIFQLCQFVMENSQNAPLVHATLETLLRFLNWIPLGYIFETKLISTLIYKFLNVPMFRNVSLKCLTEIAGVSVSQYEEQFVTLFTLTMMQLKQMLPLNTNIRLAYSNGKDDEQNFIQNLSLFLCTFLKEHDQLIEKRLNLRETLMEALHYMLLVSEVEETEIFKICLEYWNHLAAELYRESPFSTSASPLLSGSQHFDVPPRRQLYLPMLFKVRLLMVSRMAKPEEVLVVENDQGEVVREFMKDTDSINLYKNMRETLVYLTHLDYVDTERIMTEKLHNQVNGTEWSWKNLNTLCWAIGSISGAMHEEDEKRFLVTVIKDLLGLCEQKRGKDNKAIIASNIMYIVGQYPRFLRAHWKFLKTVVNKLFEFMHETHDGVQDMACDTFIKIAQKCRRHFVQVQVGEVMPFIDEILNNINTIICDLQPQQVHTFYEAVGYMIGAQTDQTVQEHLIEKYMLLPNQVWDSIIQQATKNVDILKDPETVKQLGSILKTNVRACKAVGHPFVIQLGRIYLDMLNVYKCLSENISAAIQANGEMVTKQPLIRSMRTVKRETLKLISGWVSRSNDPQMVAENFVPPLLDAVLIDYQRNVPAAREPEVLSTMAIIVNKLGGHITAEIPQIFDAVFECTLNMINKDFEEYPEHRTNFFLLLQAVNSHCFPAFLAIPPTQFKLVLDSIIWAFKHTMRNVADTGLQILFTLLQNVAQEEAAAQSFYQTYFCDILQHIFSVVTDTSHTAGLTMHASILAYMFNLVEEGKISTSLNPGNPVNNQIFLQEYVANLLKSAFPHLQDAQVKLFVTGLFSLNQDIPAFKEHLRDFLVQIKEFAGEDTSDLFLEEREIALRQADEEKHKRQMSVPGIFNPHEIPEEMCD

A word on the IC50: it is the concentration that inhibits the measured activity by half. As to `CC(C)C[C@H](NC(=O)C(CCCN=[N+]=[N-])NC(=O)[C@H](Cc1ccc(O)cc1)NC(=O)[C@H](CO)NC(=O)[C@H](Cc1c[nH]c2ccccc12)NC(=O)[C@H](Cc1c[nH]cn1)NC(=O)[C@@H]1CCC(=O)N1)C(=O)N[C@@H](CCCNC(=N)N)C(=O)N1CCC[C@H]1C(=O)NCC(N)=O` (stereo in doubt) [D-N3-Orn-LHRH, (S)-1-(((R)-2-((S)-2-((S)-2-((S)-2-((S)-3-(1H-imidazol-4-yl)-2-((S)-5-oxopyrrolidine-2-carboxamido)propanamido)-3-(1H-indol-3-yl)propanamido)-3-hydroxypropanamido)-3-(4-hydroxyphenyl)propanamido)-5-azidopentanoyl)-L-leucyl-L-arginyl)-N-(2-amino-2-oxoethyl)pyrrolidine-2-carboxamide], the IC50 in test [1] is 318 nM; in test [2], 47.4 nM; in test [3], 190 nM; in test [4] it was 1110 nM.
In the case of `C/C=C/[C@@H]1O[C@H]([C@@H](/C=C/C=C(\C)C[C@@H](C)/C=C(C)\C=C\[C@H]2CC=CC(=O)O2)NC(=O)OCc2ccc(NC(=O)[C@H](CCCNC(N)=O)NC(=O)[C@@H](NC(=O)OC[C@@H]3[C@@H]4CCC#CCC[C@@H]43)C(C)C)cc2)C[C@@H](O)[C@@H]1C` [BCN—O(CO)HN-Val-Cit-PABO(CO)NH-Ratja 31, ((1R,8S,9s)-bicyclo[6.1.0]non-4-yn-9-yl)methyl ((S)-1-(((S)-1-((4-(((((1R,2E,4E,7R,8Z,10E)-1-((2S,4R,5S,6S)-4-hydroxy-5-methyl-6-((E)-prop-1-en-1-yl)tetrahydro-2H-pyran-2-yl)-5,7,9-trimethyl-11-((R)-6-oxo-3,6-dihydro-2H-pyran-2-yl)undeca-2,4,8,10-tetraen-1-yl)carbamoyl)oxy)methyl)phenyl)amino)-1-oxo-5-ureidopentan-2-yl)amino)-3-methyl-1-oxobutan-2-yl)carbamate], the IC50 was 39.5 nM in test [1] (setting [6]); 20.2 nM in test [2] (setting [7]); 34.7 nM in test [3] (setting [8]); 346 nM against CRM1; 25.1 nM in test [5].
Consider `C#CCCC(=O)N[C@H](/C=C/C=C(\C)C[C@@H](C)/C=C(C)\C=C\[C@H]1CC=CC(=O)O1)[C@@H]1C[C@@H](O)[C@H](C)[C@H](/C=C/C)O1` [Compound 22, N-((1R,2E,4E,7R,8Z,10E)-1-((2S,4R,5S,6S)-4-hydroxy-5-methyl-6-((E)-prop-1-en-1-yl)tetrahydro-2H-pyran-2-yl)-5,7,9-trimethyl-11-((R)-6-oxo-3,6-dihydro-2H-pyran-2-yl)undeca-2,4,8,10-tetraen-1-yl)pent-4-ynamide], for which the IC50 in test [1] (setting [6]) came to 0.58 nM; in test [2] (setting [7]), 0.4 nM; in test [3] (setting [8]), 0.44 nM; at CRM1 (setting [9]) it was 23.2 nM; in test [5], 1.05 nM.
`C#CCCOC(=O)N[C@H](/C=C/C=C(\C)C[C@@H](C)/C=C(C)\C=C\[C@H]1CC=CC(=O)O1)[C@@H]1C[C@@H](O)[C@H](C)[C@H](/C=C/C)O1` [Compound 24, But-3-yn-1-yl ((1R,2E,4E,7R,8Z,10E)-1-((2S,4R,5S,6S)-4-hydroxy-5-methyl-6-((E)-prop-1-en-1-yl)tetrahydro-2H-pyran-2-yl)-5,7,9-trimethyl-11-((R)-6-oxo-3,6-dihydro-2H-pyran-2-yl)undeca-2,4,8,10-tetraen-1-yl)carbamate]: the IC50 amounted to 1.25 nM in test [1] (setting [6]); 0.27 nM in test [2] (setting [7]); 0.45 nM in test [3] (setting [8]); 46.1 nM at CRM1 (setting [9]); 0.47 nM in test [5].
For `C#CCCOC(=O)N[C@@H](/C=C/C=C(\C)C[C@@H](C)/C=C(C)\C=C\[C@H]1CC=CC(=O)O1)[C@@H]1C[C@@H](O)[C@H](C)[C@H](/C=C/C)O1` [Compound 25, But-3-yn-1-yl ((1S,2E,4E,7R,8Z,10E)-1-((2S,4R,5S,6S)-4-hydroxy-5-methyl-6-((E)-prop-1-en-1-yl)tetrahydro-2H-pyran-2-yl)-5,7,9-trimethyl-11-((R)-6-oxo-3,6-dihydro-2H-pyran-2-yl)undeca-2,4,8,10-tetraen-1-yl)carbamate], in that order: 2.45 nM, 0.62 nM, 1.2 nM, 12 nM and 1.23 nM.
As for `[N-]=[N+]=NCCC[C@H](NC(=O)[C@@H](CC(=O)O)NC(=O)[C@@H](CC(=O)O)NC(=O)[C@@H](CC(=O)O)NC(=O)[C@@H](CC(=O)O)NC(=O)[C@@H](CC(=O)O)NC(=O)CC[C@H](NC(=O)c1ccc(NCc2cnc3nc(N)nc(O)c3n2)cc1)C(=O)O)C(=O)O` [FA-N3-5, N^2-(4-(((2-amino-4-hydroxypteridin-6-yl)methyl)amino)benzoyl)-N5-((R)-1-(((R)-1-(((R)-1-(((R)-1-(((R)-1-(((S)-4-azido-1-carboxybutyl)amino)-3-carboxy-1-oxopropan-2-yl)amino)-3-carboxy-1-oxopropan-2-yl)amino)-3-carboxy-1-oxopropan-2-yl)amino)-3-carboxy-1-oxopropan-2-yl)amino)-3-carboxy-1-oxopropan-2-yl)-L-glutamine] ({Pteroyl-γGlu}-[dD][dD][dD][dD][dD][Orn(N3)]-OH), the IC50 in test [1] (setting [10]) and in test [4] (setting [11]) was > 86400 nM in each case.
For `[N-]=[N+]=Nc1ccc(C(=O)NCCCC[C@H](NC(=O)CC[C@H](NC(=O)CC[C@H](NC(=O)c2ccc(NCc3cnc4nc(N)nc(O)c4n3)cc2)C(=O)O)C(=O)O)C(=O)O)cc1` [FA-N3-6, (3S,8S,13S)-1-(4-(((2-amino-4-hydroxypteridin-6-yl)methyl)amino)phenyl)-19-(4-azidophenyl)-1,6,11,19-tetraoxo-2,7,12,18-tetraazanonadecane-3,8,13-tricarboxylic acid], the IC50 in test [1] (setting [10]) and in test [4] (setting [11]) was > 118000 nM in each case.
For `[N-]=[N+]=NCCC[C@H](NC(=O)CC[C@H](NC(=O)c1ccc(NCc2cnc3nc(N)nc(O)c3n2)cc1)C(=O)O)C(=O)N[C@H](CCCCN)C(=O)O` [FA-N3-9, ((S)-2-((S)-4-(4-(((2-amino-4-hydroxypteridin-6-yl)methyl)amino)benzamido)-4-carboxybutanamido)-5-azidopentanoyl)-D-lysine], the IC50 in test [1] (setting [10]) and in test [4] (setting [11]) was > 140000 nM in each case.
As to `C#CCNC1C[C@@H]([C@H](O)/C=C/C=C(\C)C[C@@H](C)/C=C(C)\C=C\[C@H]2CC=CC(=O)O2)O[C@@H](/C=C/C)[C@H]1C` (stereo partly drawn) [N-Propargyl-19-amino-Ratjadone 42, (6R)-6-((1E,3Z,5R,7E,9E,11R)-11-hydroxy-3,5,7-trimethyl-11-((2S,5S,6S)-5-methyl-6-((E)-prop-1-en-1-yl)-4-(prop-2-yn-1-ylamino)tetrahydro-2H-pyran-2-yl)undeca-1,3,7,9-tetraen-1-yl)-5,6-dihydro-2H-pyran-2-one], the IC50 in test [1] (setting [6]) worked out at 1.12 nM; in test [2] (setting [7]) it was 1.31 nM; in test [3] (setting [8]) it was 2.63 nM; on CRM1 (setting [9]) it was 18.3 nM; in test [5] it was 1.23 nM.
